One block for each compound: values may come before it.
What was measured:
[1] = Plasma stability evaluation (TLC analysis); assay type: in vitro ADME; conditions: 37° C., 60 minutes, TLC analysis
Outline: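 Radiolabelled compounds were incubated in heparin-treated pooled normal human plasma at 37° C for 60 minutes. After methanol deproteinization and centrifugation, stability was assessed by TLC under the conditions used for each compound's synthesis.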

[2] = system: human adrenal gland section expressing aldosterone-producing adenoma; assay: In vitro autoradiography using human adrenal adenoma; assay type: binding
Outline: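 Frozen 7-μm sections of human adrenal bearing aldosterone-producing adenoma were immersed 10 min in radioligand (5-33 kBq/mL) in PBS with 1% fatty-acid-free BSA, washed, then exposed to imaging plates for 16-20 h. Equal-area ROI PSL in adenoma (B2) versus normal cortex (B1) gave B2/B1, corrected for nuclide half-life, added activity and exposure time.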

[3] = In vivo kinetics experiment (radioactivity distribution); design: species or system Wistar male rat
Outline: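 Male Wistar rats (9 weeks) under isoflurane received approximately 1 to 3.7 MBq radiotracer in saline with 1 w/v % ascorbic acid by tail-vein injection. At 10, 30 and 60 min, rats were exsanguinated; blood, organs and remaining body weighed and counted, giving % ID/g and adrenal-to-tissue ratios.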

[4] = 10 min after administration, rat i.v., mean ± SD
[5] = 30 min after administration, rat i.v., mean ± SD
[6] = 60 min after administration, rat i.v., mean ± SD
[7] = rat, caudal vein, 10 min after administration
[8] = rat, caudal vein, 30 min after administration
[9] = rat, caudal vein, 60 min after administration

Radiochemical purity after incubation in human plasma [1]: 92% | Adrenal gland/blood ratio of radioactivity accumulation [3, 4]: 27.61 ± 6.22 | Adrenal gland/fat ratio of radioactivity accumulation [3, 4]: 100.35 ± 29.67 | Adrenal gland/kidney ratio of radioactivity accumulation [3, 4]: 14.48 ± 2.49 | Adrenal gland/liver ratio of radioactivity accumulation [3, 4]: 3.68 ± 0.80 | Adrenal gland/muscle ratio of radioactivity accumulation [3, 4]: 62.69 ± 29.38 | Adrenal gland/small intestine ratio of radioactivity accumulation [3, 4]: 18.10 ± 4.67 | Radioactivity distribution Adrenal gland [3, 4]: 12.62 ± 2.99 % ID/g | Radioactivity distribution Bladder (including urine) [3, 4]: 0.22 ± 0.08 % ID/g | Radioactivity distribution Blood [3, 4]: 0.46 ± 0.03 % ID/g | Radioactivity distribution Fat [3, 4]: 0.13 ± 0.02 % ID/g | Radioactivity distribution Femur [3, 4]: 3.25 ± 0.85 % ID/g | Radioactivity distribution Heart [3, 4]: 0.33 ± 0.02 % ID/g | Radioactivity distribution Kidney [3, 4]: 0.86 ± 0.06 % ID/g | Radioactivity distribution Large intestine [3, 4]: 0.13 ± 0.02 % ID/g | Radioactivity distribution Liver [3, 4]: 3.43 ± 0.26 % ID/g | Radioactivity distribution Lung [3, 4]: 0.49 ± 0.03 % ID/g | Radioactivity distribution Muscle (lower limbs) [3, 4]: 0.21 ± 0.05 % ID/g | Radioactivity distribution Remaining whole body [3, 4]: 0.30 ± 0.04 % ID/g | Radioactivity distribution Small intestine [3, 4]: 0.71 ± 0.10 % ID/g | Radioactivity distribution Spleen [3, 4]: 1.43 ± 0.11 % ID/g | Radioactivity distribution Stomach [3, 4]: 0.66 ± 0.21 % ID/g | Radioactivity distribution Testis [3, 4]: 0.13 ± 0.02 % ID/g | Radioactivity distribution Whole brain [3, 4]: 0.04 ± 0.00 % ID/g | Adrenal gland/blood ratio of radioactivity accumulation [3, 5]: 23.78 ± 2.07 | Adrenal gland/fat ratio of radioactivity accumulation [3, 5]: 88.69 ± 3.10 | Adrenal gland/kidney ratio of radioactivity accumulation [3, 5]: 28.65 ± 3.77 | Adrenal gland/liver ratio of radioactivity accumulation [3, 5]: 6.43 ± 0.94 | Adrenal gland/muscle ratio of radioactivity accumulation [3, 5]: 94.79 ± 8.71 | Adrenal gland/small intestine ratio of radioactivity accumulation [3, 5]: 16.12 ± 2.61 | Radioactivity distribution Adrenal gland [3, 5]: 15.71 ± 1.59 % ID/g | Radioactivity distribution Bladder (including urine) [3, 5]: 0.28 ± 0.08 % ID/g | Radioactivity distribution Blood [3, 5]: 0.66 ± 0.04 % ID/g | Radioactivity distribution Fat [3, 5]: 0.18 ± 0.01 % ID/g | Radioactivity distribution Femur [3, 5]: 19.34 ± 6.00 % ID/g | Radioactivity distribution Heart [3, 5]: 0.31 ± 0.02 % ID/g | Radioactivity distribution Kidney [3, 5]: 0.55 ± 0.02 % ID/g | Radioactivity distribution Large intestine [3, 5]: 0.16 ± 0.03 % ID/g | Radioactivity distribution Liver [3, 5]: 2.46 ± 0.18 % ID/g | Radioactivity distribution Lung [3, 5]: 0.53 ± 0.02 % ID/g | Radioactivity distribution Muscle (lower limbs) [3, 5]: 0.17 ± 0.02 % ID/g | Radioactivity distribution Remaining whole body [3, 5]: 0.31 ± 0.02 % ID/g | Radioactivity distribution Small intestine [3, 5]: 0.98 ± 0.06 % ID/g | Radioactivity distribution Spleen [3, 5]: 1.00 ± 0.04 % ID/g | Radioactivity distribution Stomach [3, 5]: 1.27 ± 0.33 % ID/g | Radioactivity distribution Testis [3, 5]: 0.25 ± 0.02 % ID/g | Radioactivity distribution Whole brain [3, 5]: 0.04 ± 0.00 % ID/g | Adrenal gland/blood ratio of radioactivity accumulation [3, 6]: 27.80 ± 8.18 | Adrenal gland/fat ratio of radioactivity accumulation [3, 6]: 120.42 ± 43.06 | Adrenal gland/kidney ratio of radioactivity accumulation [3, 6]: 40.68 ± 13.23 | Adrenal gland/liver ratio of radioactivity accumulation [3, 6]: 20.57 ± 8.91 | Adrenal gland/muscle ratio of radioactivity accumulation [3, 6]: 147.93 ± 55.03 | Adrenal gland/small intestine ratio of radioactivity accumulation [3, 6]: 15.84 ± 3.51 | Radioactivity distribution Adrenal gland [3, 6]: 19.09 ± 6.65 % ID/g | Radioactivity distribution Bladder (including urine) [3, 6]: 0.29 ± 0.08 % ID/g | Radioactivity distribution Blood [3, 6]: 0.68 ± 0.05 % ID/g | Radioactivity distribution Fat [3, 6]: 0.16 ± 0.03 % ID/g | Radioactivity distribution Femur [3, 6]: 44.38 ± 12.58 % ID/g | Radioactivity distribution Heart [3, 6]: 0.28 ± 0.04 % ID/g | Radioactivity distribution Kidney [3, 6]: 0.47 ± 0.02 % ID/g | Radioactivity distribution Large intestine [3, 6]: 0.19 ± 0.02 % ID/g | Radioactivity distribution Liver [3, 6]: 0.95 ± 0.10 % ID/g | Radioactivity distribution Lung [3, 6]: 0.50 ± 0.03 % ID/g | Radioactivity distribution Muscle (lower limbs) [3, 6]: 0.13 ± 0.01 % ID/g | Radioactivity distribution Remaining whole body [3, 6]: 0.31 ± 0.02 % ID/g | Radioactivity distribution Small intestine [3, 6]: 1.18 ± 0.18 % ID/g | Radioactivity distribution Spleen [3, 6]: 0.78 ± 0.25 % ID/g | Radioactivity distribution Stomach [3, 6]: 2.97 ± 0.54 % ID/g | Radioactivity distribution Testis [3, 6]: 0.32 ± 0.05 % ID/g | Radioactivity distribution Whole brain [3, 6]: 0.03 ± 0.00 % ID/g
Compound: FCCn1c(-c2cncc(Cn3cncc3[123I])c2)nc2cc(F)c(Cl)cc21 [[^123I] 610, 6-Chloro-5-fluoro-1-(2-fluoroethyl)-2-{5-(5-[^123I]iodo-1H-imidazol-1-ylmethyl)pyridin-3-yl}benzimidazole]
B2/B1 accumulation ratio ([2]; section of FIG. 17(b)): 0.95 | B2 (PSL value, aldosterone-producing adenoma) ([2]; section of FIG. 17(b), site 71b): 2786 | B1 (PSL value, normal adrenal cortex) ([2]; section of FIG. 17(b), site 72b): 2931

Compound: Methyl 1-[4-(1-cyclopropyl-6-[^123I]iodo-1H-imidazobenzo-2-yl)-3-pyridinylmethyl)]-1H-imidazolecarboxylate [[^123I] 601]
Radiochemical purity after incubation in human plasma [1]: 98% | B2/B1 accumulation ratio ([2]; section of FIG. 17(a)): 1.05 | B2 (PSL value, aldosterone-producing adenoma) ([2]; section of FIG. 17(a), site 71a): 3201 | B1 (PSL value, normal adrenal cortex) ([2]; section of FIG. 17(a), site 72a): 3040 | Adrenal gland/blood ratio of radioactivity accumulation [3, 7]: 49.76 ± 8.04 | Adrenal gland/fat ratio of radioactivity accumulation [3, 7]: 48.18 ± 26.02 | Adrenal gland/kidney ratio of radioactivity accumulation [3, 7]: 11.53 ± 2.04 | Adrenal gland/liver ratio of radioactivity accumulation [3, 7]: 3.21 ± 0.44 | Adrenal gland/muscle ratio of radioactivity accumulation [3, 7]: 51.74 ± 11.28 | Adrenal gland/small intestine ratio of radioactivity accumulation [3, 7]: 6.93 ± 2.04 | Radioactivity distribution Adrenal gland [3, 7]: 13.40 ± 2.41 % ID/g | Radioactivity distribution Bladder (including urine) [3, 7]: 0.65 ± 0.26 % ID/g | Radioactivity distribution Blood [3, 7]: 0.27 ± 0.01 % ID/g | Radioactivity distribution Fat [3, 7]: 0.34 ± 0.16 % ID/g | Radioactivity distribution Heart [3, 7]: 0.61 ± 0.03 % ID/g | Radioactivity distribution Kidney [3, 7]: 1.16 ± 0.02 % ID/g | Radioactivity distribution Large intestine [3, 7]: 0.14 ± 0.01 % ID/g | Radioactivity distribution Liver [3, 7]: 4.15 ± 0.27 % ID/g | Radioactivity distribution Lung [3, 7]: 0.54 ± 0.01 % ID/g | Radioactivity distribution Muscle (lower limbs) [3, 7]: 0.26 ± 0.02 % ID/g | Radioactivity distribution Remaining whole body [3, 7]: 0.30 ± 0.01 % ID/g | Radioactivity distribution Small intestine [3, 7]: 1.99 ± 0.27 % ID/g | Radioactivity distribution Spleen [3, 7]: 0.51 ± 0.02 % ID/g | Radioactivity distribution Stomach [3, 7]: 0.83 ± 0.25 % ID/g | Radioactivity distribution Testis [3, 7]: 0.32 ± 0.01 % ID/g | Radioactivity distribution Thyroid gland [3, 7]: 0.62 ± 0.09 % ID/g | Radioactivity distribution Whole brain [3, 7]: 0.15 ± 0.01 % ID/g | Adrenal gland/blood ratio of radioactivity accumulation [3, 8]: 88.31 ± 19.36 | Adrenal gland/fat ratio of radioactivity accumulation [3, 8]: 34.33 ± 3.72 | Adrenal gland/kidney ratio of radioactivity accumulation [3, 8]: 28.94 ± 22.29 | Adrenal gland/liver ratio of radioactivity accumulation [3, 8]: 6.49 ± 1.59 | Adrenal gland/muscle ratio of radioactivity accumulation [3, 8]: 72.90 ± 18.29 | Adrenal gland/small intestine ratio of radioactivity accumulation [3, 8]: 3.30 ± 0.96 | Radioactivity distribution Adrenal gland [3, 8]: 17.21 ± 1.46 % ID/g | Radioactivity distribution Bladder (including urine) [3, 8]: 0.41 ± 0.03 % ID/g | Radioactivity distribution Blood [3, 8]: 0.20 ± 0.03 % ID/g | Radioactivity distribution Fat [3, 8]: 0.50 ± 0.03 % ID/g | Radioactivity distribution Heart [3, 8]: 0.42 ± 0.08 % ID/g | Radioactivity distribution Kidney [3, 8]: 0.80 ± 0.39 % ID/g | Radioactivity distribution Large intestine [3, 8]: 0.15 ± 0.01 % ID/g | Radioactivity distribution Liver [3, 8]: 2.71 ± 0.39 % ID/g | Radioactivity distribution Lung [3, 8]: 0.43 ± 0.07 % ID/g | Radioactivity distribution Muscle (lower limbs) [3, 8]: 0.24 ± 0.04 % ID/g | Radioactivity distribution Remaining whole body [3, 8]: 0.24 ± 0.03 % ID/g | Radioactivity distribution Small intestine [3, 8]: 5.54 ± 1.72 % ID/g | Radioactivity distribution Spleen [3, 8]: 0.35 ± 0.07 % ID/g | Radioactivity distribution Stomach [3, 8]: 0.86 ± 0.23 % ID/g | Radioactivity distribution Testis [3, 8]: 0.31 ± 0.05 % ID/g | Radioactivity distribution Thyroid gland [3, 8]: 0.69 ± 0.26 % ID/g | Radioactivity distribution Whole brain [3, 8]: 0.11 ± 0.02 % ID/g | Adrenal gland/blood ratio of radioactivity accumulation [3, 9]: 73.52 ± 21.70 | Adrenal gland/fat ratio of radioactivity accumulation [3, 9]: 18.31 ± 9.45 | Adrenal gland/kidney ratio of radioactivity accumulation [3, 9]: 10.42 ± 4.49 | Adrenal gland/liver ratio of radioactivity accumulation [3, 9]: 4.79 ± 1.48 | Adrenal gland/muscle ratio of radioactivity accumulation [3, 9]: 63.30 ± 21.65 | Adrenal gland/small intestine ratio of radioactivity accumulation [3, 9]: 0.99 ± 0.55 | Radioactivity distribution Adrenal gland [3, 9]: 8.87 ± 3.98 % ID/g | Radioactivity distribution Bladder (including urine) [3, 9]: 1.17 ± 0.51 % ID/g | Radioactivity distribution Blood [3, 9]: 0.12 ± 0.02 % ID/g | Radioactivity distribution Fat [3, 9]: 0.50 ± 0.09 % ID/g | Radioactivity distribution Heart [3, 9]: 0.26 ± 0.05 % ID/g | Radioactivity distribution Kidney [3, 9]: 0.84 ± 0.09 % ID/g | Radioactivity distribution Large intestine [3, 9]: 0.14 ± 0.02 % ID/g | Radioactivity distribution Liver [3, 9]: 1.80 ± 0.26 % ID/g | Radioactivity distribution Lung [3, 9]: 0.26 ± 0.03 % ID/g | Radioactivity distribution Muscle (lower limbs) [3, 9]: 0.14 ± 0.02 % ID/g | Radioactivity distribution Remaining whole body [3, 9]: 0.15 ± 0.01 % ID/g | Radioactivity distribution Small intestine [3, 9]: 9.33 ± 1.02 % ID/g | Radioactivity distribution Spleen [3, 9]: 0.20 ± 0.03 % ID/g | Radioactivity distribution Stomach [3, 9]: 0.50 ± 0.29 % ID/g | Radioactivity distribution Testis [3, 9]: 0.22 ± 0.05 % ID/g | Radioactivity distribution Thyroid gland [3, 9]: 0.93 ± 0.47 % ID/g | Radioactivity distribution Whole brain [3, 9]: 0.10 ± 0.04 % ID/g
